These results are taken from patent publication US5045302A, “Ligands and cationic complexes thereof with technetium-99m” (priority 1988, dated 1991).

The structures appear in SMILES notation.

The nature of data set [1]: Hydrophilicity, statement in words. It counts as physicochemical. Particulars: compared with complex TcL2O2+ (L=P53), as indicated by urinary output.
Data set [2] in a line: Heart uptake and urinary output, statement in words. The settings on record: species not stated.
Data set [3] can be described thus: Rat biodistribution of Tc-99m complexes.

Regarding `COCCCP(CCCOC)CCP(CCCOC)CCCOC` [Compound 3], the hydrophilicity entry in data set [1] is given as “substantially higher hydrophilicity”. For the same compound, in data set [2], the heart uptake result is reported as “low heart uptake” and the urinary output entry is recorded as “high urinary output”. Further, in data set [3] (2 min p.i.), the Blood was determined as 18.8 % Injected dose/organ, the Heart is given as 0.44 % Injected dose/organ, the “Heart/Blood Counts/Gram Ratio” value amounted to 0.35 and the “Heart/Liver Counts/Gram Ratio” value was determined as 1.71. This compound also came in with a Liver in data set [3] (2 min p.i.) of 3.62 % Injected dose/organ. For the same compound, in data set [3] (60 min p.i.), the Blood is reported as 0.77 % Injected dose/organ, the Heart was found to be 0.09 % Injected dose/organ, the “Heart/Blood Counts/Gram Ratio” value worked out at 1.82 and the “Heart/Liver Counts/Gram Ratio” value is 0.88. In addition, the Liver in data set [3] (60 min p.i.) worked out at 1.35 % Injected dose/organ.
